Numbers after ± are expanded uncertainties.
Test: xn = mol fraction of the nth substance listed
Settings: 101 kPa, Liquid; for viscosity: Capillary tube (Ostwald / Ubbelohde) method; for excess molar volume: Direct dilatometry; for speed of sound: Linear variable-path acoustic interferometer

Cc1ccc(C)cc1 [1,4-dimethylbenzene] + CCCCCCCCCC
Settings	excess molar volume, 303.15 K [m3/mol]	excess molar volume, 308.15 K [m3/mol]	excess molar volume, 313.15 K [m3/mol]	speed of sound, 303.15 K [m/s]	speed of sound, 308.15 K [m/s]	speed of sound, 313.15 K [m/s]	viscosity, 303.15 K [mPa·s]	viscosity, 308.15 K [mPa·s]	viscosity, 313.15 K [mPa·s]
x1 = 0.1533	2.83e-07 ± 1.2e-08	4.89e-07 ± 1.1e-08	6.99e-07 ± 7e-09	1215.1 ± 5.3	1192.3 ± 5.2	1176.9 ± 5.2	0.729 ± 0.02	0.678 ± 0.018	0.66 ± 0.018
x1 = 0.2952	4.35e-07 ± 1.2e-08	6.8e-07 ± 1.2e-08	9.11e-07 ± 1e-08	1220 ± 5.3	1197.6 ± 5.2	1182 ± 5.2	0.68 ± 0.019	0.639 ± 0.018	0.623 ± 0.017
x1 = 0.4189	5.14e-07 ± 1.2e-08	7.6e-07 ± 1.1e-08	9.8e-07 ± 1.1e-08	1225.5 ± 5.3	1203.1 ± 5.2	1187.7 ± 5.2	0.646 ± 0.018	0.609 ± 0.017	0.59 ± 0.016
x1 = 0.4949	5.29e-07 ± 1.2e-08	7.59e-07 ± 1.1e-08	9.81e-07 ± 1.1e-08	1230 ± 5.3	1207.3 ± 5.2	1192 ± 5.2	0.628 ± 0.017	0.592 ± 0.016	0.573 ± 0.016
x1 = 0.6001	4.9e-07 ± 1.1e-08	7.03e-07 ± 1.1e-08	9.41e-07 ± 1.1e-08	1237.9 ± 5.3	1214.1 ± 5.2	1198.8 ± 5.2	0.605 ± 0.017	0.572 ± 0.016	0.552 ± 0.015
x1 = 0.6938	4.26e-07 ± 1.1e-08	6.32e-07 ± 1.1e-08	8.76e-07 ± 1.1e-08	1246.6 ± 5.3	1221.6 ± 5.2	1205.6 ± 5.2	0.588 ± 0.016	0.557 ± 0.016	0.538 ± 0.015
x1 = 0.7777	3.54e-07 ± 1e-08	5.56e-07 ± 1.1e-08	7.71e-07 ± 1.1e-08	1255.4 ± 5.3	1229 ± 5.2	1212.5 ± 5.2	0.576 ± 0.016	0.546 ± 0.015	0.527 ± 0.015
x1 = 0.8604	2.73e-07 ± 1e-08	4.55e-07 ± 1e-08	6.47e-07 ± 9e-09	1265.3 ± 5.3	1238.4 ± 5.3	1221.3 ± 5.2	0.568 ± 0.016	0.539 ± 0.015	0.519 ± 0.015
x1 = 0.9332	1.72e-07 ± 9e-09	3.03e-07 ± 8e-09	4.4e-07 ± 7e-09	1274.4 ± 5.3	1251 ± 5.2	1232.8 ± 5.2	0.566 ± 0.016	0.537 ± 0.015	0.515 ± 0.015
x1 = 1	0 ± 6e-09	0 ± 6e-09	0 ± 6e-09	1283.7 ± 5.2	1271 ± 5.2	1260 ± 5.2	0.566 ± 0.016	0.537 ± 0.015	0.513 ± 0.015

— the NIST ThermoML archive (doi:10.1021/je0501585)
